According to US9314485B2, “Use of PI3K M-TOR and AKT inhibitors to induce FOXP3 expression and generate regulatory T cells” (Medical Research Council, priority 2006, dated 2016):

Key:
[1] = system: naive CD62LhiCD4+CD25− LN T cells; experiment: Foxp3 induction in newly activated naive CD4 T cells (intracellular staining); type: cell-based, mouse
Procedure: Mouse strains, cell sorting and culture Animal work was carried out according the Animals (Scientific Procedures) Act, UK. Lymph node (LN) cells were stained, analysed and sorted by flow cytometry as described (Cobb et al 2005 J. Exp. Med. 201: 1367-1373). Intracellular staining for Foxp3 protein was done as advised by the manufacturers (eBiosciences.com). The phosphorylation syatus of S6 ribosomal protein was determined using anti pS6 Ser235/236 (Cellsignaling cat.no. 2211, http://www.cellsignal.com) using the eBioscience Foxp3 staining kit and anti rabbit IgG-FITC or IgG-Cy5 (Jackson Immunoresearch). For induction of Foxp3 expression, sorted LN CD4+ CD25− CD62Lhi T cells were cultured at 1-3×10^6/ml with plate bound anti-TCRβ. […] After 18 hours the cells were either left in place for continued TCR stimulation or moved to uncoated wells with the indicated additives. To assess regulatory function, CD4 T cells cultured as indicated were titrated into round bottom wells containing either 1×10^5 CFSE labeled total LN cells or 5×10^4 CFSE labeled CD4^+ CD25^− T cells and 1×10^5 mitomycin-C treated (25 μg/ml, 20 min, 37° C.) T cell depleted splenocytes with the indicated concentrations of anti CD3 (2C11, Pharmingen). CD4 T cell CFSE profiles were recorded between 48 and 72 hours later.
Mice, Cell Sorting and Culture. Animal work was carried out according to the Animals (Scientific Procedures) Act, UK. Lymph node (LN) cells or thymocytes from wild type were stained, analysed and sorted by flow cytometry as described (Thompson et al., 2007 Immunity VoI 26 pp 335-344) from wild type (C57BL/6, BALB/c or C57BL/6×129) mice or from Rag1 deficient H2^b AND TCR transgenic mice. Antigen presenting cells were derived from bone marrow in the presence of GM-CSF and incubated with antigenic peptide. Intracellular staining for Foxp3 protein was done as advised by the manufacturers (eBiosciences.com). The phosphorylation status of S6 ribosomal protein was determined using anti pS6 Ser235/236 (Cell Signaling cat.no. 2211, http://www.cellsignal.com) using the eBioscience Foxp3 staining kit and anti rabbit IgG-FITC or IgG-Cy5 (Jackson ImmunoResearch). […] After 18 hours the cells were either left in place for continued TCR stimulation or moved to uncoated wells with the indicated additives. To assess regulatory function, CD4 T cells cultured as indicated were titrated into round bottom wells containing either 1×10^5 CFSE labeled total LN cells or 5×10^4 CFSE labeled CD4^+CD25^− T cells and 1×10^5 mitomycin-C treated (25 μg/ml, 20 min, 37° C.) T cell depleted splenocytes with the indicated concentrations of anti CD3 (2C11, Pharmingen). CD4 T cell CFSE profiles were recorded between 48 and 72 hours later.

PI3KC2α = PI3KC2α (Homo sapiens, UniProt O00443); conditions: unit inferred; read-out: Specificity for PI3KC2α (IC50 determined in vitro); cited from earlier work
PI3KC2β = PI3KC2β (Homo sapiens, UniProt O00750); conditions: unit inferred; read-out: Specificity for PI3KC2β (IC50 determined in vitro); cited from earlier work
PI3KC2γ = PI3KC2γ (Homo sapiens, UniProt O75747); conditions: unit inferred; read-out: Specificity for PI3KC2γ (IC50 determined in vitro); cited from earlier work
hsVPS34 = hsVPS34 (Homo sapiens, UniProt Q8NEB9); conditions: unit inferred; read-out: Specificity for hsVPS34 (IC50 determined in vitro); cited from earlier work
PI4KIIα = PI4KIIα (Homo sapiens, UniProt Q9BTU6); conditions: unit inferred; read-out: Specificity for PI4KIIα (IC50 determined in vitro); cited from earlier work
PI4KIIIα = PI4KIIIα (Homo sapiens, UniProt P42356); conditions: unit inferred; read-out: Specificity for PI4KIIIα (IC50 determined in vitro); cited from earlier work
PI4KIIIβ = PI4KIIIβ (Homo sapiens, UniProt Q9UBF8); conditions: unit inferred; read-out: Specificity for PI4KIIIβ (IC50 determined in vitro); cited from earlier work
ATR = ATR (Homo sapiens, UniProt Q13535); conditions: unit inferred; read-out: Specificity for ATR (IC50 determined in vitro); cited from earlier work
ATM = ATM (Homo sapiens, UniProt Q13315); conditions: unit inferred; read-out: Specificity for ATM (IC50 determined in vitro); cited from earlier work
DNA-PK = DNA-PK (Homo sapiens, UniProt P78527); conditions: unit inferred; read-out: Specificity for DNA-PK (IC50 determined in vitro); cited from earlier work
mTORC1 = mTORC1 (Homo sapiens, UniProt P42345); conditions: unit inferred; read-out: Specificity for mTORC1 (IC50 determined in vitro); cited from earlier work
mTORC2 = mTORC2 (Homo sapiens, UniProt P42345); conditions: unit inferred; read-out: Specificity for mTORC2 (IC50 determined in vitro); cited from earlier work
PI4P5KIα [2] = target: PI4P5KIα (Homo sapiens, UniProt Q99755); conditions: first PI4P5KIα line; unit inferred; read-out: Specificity for PI4P5KIα (IC50 determined in vitro); cited from earlier work
PI4P5KIα [3] = conditions: second PI4P5KIα line; unit inferred; read-out: Specificity for PI4P5KIα (IC50 determined in vitro); cited from earlier work
PI5P4KIIβ = target: T1, PI5P4KIIβ (Homo sapiens, UniProt P78356); conditions: unit inferred; read-out: Specificity for PI5P4KIIβ (IC50 determined in vitro); cited from earlier work
T1 sequence (P78356 1-416): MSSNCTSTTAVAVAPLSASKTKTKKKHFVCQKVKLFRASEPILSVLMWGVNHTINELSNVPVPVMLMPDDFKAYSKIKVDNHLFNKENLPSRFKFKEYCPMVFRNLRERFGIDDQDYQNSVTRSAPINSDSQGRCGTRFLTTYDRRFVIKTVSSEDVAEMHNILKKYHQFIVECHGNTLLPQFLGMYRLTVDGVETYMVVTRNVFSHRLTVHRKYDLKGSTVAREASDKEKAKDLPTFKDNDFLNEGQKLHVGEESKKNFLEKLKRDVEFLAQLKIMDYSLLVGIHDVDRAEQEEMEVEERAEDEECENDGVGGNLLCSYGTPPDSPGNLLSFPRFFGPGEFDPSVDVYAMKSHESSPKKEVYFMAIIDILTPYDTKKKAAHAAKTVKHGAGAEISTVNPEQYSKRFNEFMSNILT

p110α = p110α (Homo sapiens, UniProt P42336); conditions: unit inferred; read-out: Specificity for p110α (IC50 determined in vitro); cited from earlier work
p110β = p110β (Homo sapiens, UniProt P42338); conditions: unit inferred; read-out: Specificity for p110β (IC50 determined in vitro); cited from earlier work
p110δ = p110δ (Homo sapiens, UniProt O00329); conditions: unit inferred; read-out: Specificity for p110δ (IC50 determined in vitro); cited from earlier work
p110γ = p110γ (Homo sapiens, UniProt P48736); conditions: unit inferred; read-out: Specificity for p110γ (IC50 determined in vitro); cited from earlier work

ATR, sequence (Q13535 whole entry): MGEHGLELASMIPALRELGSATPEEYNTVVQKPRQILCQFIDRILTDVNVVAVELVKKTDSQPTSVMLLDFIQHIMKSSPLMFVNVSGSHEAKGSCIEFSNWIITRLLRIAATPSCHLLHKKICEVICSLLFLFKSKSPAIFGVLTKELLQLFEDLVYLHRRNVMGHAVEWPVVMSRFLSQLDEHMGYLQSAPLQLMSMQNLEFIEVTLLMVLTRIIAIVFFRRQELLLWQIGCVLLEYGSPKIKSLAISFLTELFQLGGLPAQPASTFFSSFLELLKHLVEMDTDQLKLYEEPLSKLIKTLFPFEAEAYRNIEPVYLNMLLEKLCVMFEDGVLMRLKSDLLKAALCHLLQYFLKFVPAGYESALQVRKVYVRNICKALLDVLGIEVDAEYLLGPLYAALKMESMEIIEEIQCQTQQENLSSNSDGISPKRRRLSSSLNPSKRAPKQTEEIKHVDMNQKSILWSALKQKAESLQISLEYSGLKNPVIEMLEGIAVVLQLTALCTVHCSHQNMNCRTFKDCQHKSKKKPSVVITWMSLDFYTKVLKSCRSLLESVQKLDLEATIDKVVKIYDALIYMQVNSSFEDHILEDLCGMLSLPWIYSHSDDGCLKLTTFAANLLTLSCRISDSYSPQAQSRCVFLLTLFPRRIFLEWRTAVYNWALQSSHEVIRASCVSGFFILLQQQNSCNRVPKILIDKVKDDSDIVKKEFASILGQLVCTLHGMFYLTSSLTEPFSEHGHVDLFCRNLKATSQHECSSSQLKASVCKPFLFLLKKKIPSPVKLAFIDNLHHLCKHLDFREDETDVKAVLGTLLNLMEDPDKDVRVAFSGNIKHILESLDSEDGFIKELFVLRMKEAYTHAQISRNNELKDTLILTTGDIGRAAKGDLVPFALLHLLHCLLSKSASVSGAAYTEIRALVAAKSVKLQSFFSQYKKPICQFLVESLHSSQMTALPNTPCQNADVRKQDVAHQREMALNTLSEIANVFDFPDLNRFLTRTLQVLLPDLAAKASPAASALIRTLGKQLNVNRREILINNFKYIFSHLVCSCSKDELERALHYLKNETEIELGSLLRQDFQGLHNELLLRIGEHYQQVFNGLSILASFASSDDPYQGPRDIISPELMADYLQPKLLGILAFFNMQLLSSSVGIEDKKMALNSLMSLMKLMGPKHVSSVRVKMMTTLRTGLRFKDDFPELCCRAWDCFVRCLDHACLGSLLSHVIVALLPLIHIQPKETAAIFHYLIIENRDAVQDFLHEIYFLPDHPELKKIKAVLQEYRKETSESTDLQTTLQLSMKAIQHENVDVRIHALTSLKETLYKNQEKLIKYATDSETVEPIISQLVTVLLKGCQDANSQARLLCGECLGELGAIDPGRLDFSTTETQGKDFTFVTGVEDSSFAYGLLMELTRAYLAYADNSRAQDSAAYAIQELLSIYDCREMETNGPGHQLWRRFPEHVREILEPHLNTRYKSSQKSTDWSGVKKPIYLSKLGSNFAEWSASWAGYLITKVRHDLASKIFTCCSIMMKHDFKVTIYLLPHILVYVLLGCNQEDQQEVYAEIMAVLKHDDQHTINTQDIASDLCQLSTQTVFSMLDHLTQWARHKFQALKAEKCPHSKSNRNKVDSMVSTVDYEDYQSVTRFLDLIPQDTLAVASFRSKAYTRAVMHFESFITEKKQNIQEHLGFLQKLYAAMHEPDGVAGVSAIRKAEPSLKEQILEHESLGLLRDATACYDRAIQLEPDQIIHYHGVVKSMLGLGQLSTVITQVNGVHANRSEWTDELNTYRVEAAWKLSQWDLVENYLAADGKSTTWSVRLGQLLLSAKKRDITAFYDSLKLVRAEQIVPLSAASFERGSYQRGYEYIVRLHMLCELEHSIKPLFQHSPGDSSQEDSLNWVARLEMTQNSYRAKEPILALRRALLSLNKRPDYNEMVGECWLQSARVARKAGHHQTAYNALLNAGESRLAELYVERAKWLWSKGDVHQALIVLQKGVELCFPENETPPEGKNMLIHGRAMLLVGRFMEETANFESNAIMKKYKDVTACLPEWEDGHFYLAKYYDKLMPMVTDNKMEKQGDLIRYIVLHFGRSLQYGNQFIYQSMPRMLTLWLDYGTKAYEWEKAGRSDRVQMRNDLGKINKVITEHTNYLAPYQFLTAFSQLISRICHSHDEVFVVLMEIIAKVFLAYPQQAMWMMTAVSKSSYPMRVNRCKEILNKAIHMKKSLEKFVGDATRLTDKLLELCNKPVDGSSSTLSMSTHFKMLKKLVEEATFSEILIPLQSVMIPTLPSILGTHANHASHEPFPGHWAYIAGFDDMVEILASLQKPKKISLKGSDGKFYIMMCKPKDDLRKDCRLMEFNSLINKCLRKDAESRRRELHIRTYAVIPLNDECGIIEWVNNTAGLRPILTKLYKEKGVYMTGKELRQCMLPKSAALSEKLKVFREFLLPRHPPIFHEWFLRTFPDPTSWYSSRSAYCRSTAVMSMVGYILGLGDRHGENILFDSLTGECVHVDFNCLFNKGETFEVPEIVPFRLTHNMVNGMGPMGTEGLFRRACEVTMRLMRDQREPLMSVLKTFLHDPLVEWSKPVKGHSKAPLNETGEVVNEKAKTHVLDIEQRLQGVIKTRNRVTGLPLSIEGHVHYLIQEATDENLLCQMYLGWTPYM
ATR, sequence (Q8WXE1 whole entry partner): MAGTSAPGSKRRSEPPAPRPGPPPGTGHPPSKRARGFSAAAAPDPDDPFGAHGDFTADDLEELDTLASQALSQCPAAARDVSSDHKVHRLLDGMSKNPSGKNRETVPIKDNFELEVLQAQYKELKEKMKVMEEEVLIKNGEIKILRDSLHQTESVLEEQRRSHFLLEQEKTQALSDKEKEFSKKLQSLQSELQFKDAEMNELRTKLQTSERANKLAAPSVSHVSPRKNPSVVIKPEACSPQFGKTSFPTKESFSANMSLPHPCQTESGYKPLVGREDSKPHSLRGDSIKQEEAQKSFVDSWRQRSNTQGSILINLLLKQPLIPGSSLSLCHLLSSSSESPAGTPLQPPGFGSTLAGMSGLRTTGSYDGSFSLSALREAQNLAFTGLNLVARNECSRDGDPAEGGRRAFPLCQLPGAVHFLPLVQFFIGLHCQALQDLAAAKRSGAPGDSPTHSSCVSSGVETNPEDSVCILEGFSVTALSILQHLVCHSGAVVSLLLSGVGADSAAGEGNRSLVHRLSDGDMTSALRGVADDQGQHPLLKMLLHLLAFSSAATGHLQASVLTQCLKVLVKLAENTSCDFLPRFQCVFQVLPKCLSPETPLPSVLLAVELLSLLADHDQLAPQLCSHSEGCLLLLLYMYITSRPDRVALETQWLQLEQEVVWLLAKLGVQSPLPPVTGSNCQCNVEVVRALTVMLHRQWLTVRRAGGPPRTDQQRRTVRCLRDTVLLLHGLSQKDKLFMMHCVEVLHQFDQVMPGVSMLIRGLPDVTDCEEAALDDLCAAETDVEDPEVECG
PI4KIIα, sequence (Q9BTU6 whole entry): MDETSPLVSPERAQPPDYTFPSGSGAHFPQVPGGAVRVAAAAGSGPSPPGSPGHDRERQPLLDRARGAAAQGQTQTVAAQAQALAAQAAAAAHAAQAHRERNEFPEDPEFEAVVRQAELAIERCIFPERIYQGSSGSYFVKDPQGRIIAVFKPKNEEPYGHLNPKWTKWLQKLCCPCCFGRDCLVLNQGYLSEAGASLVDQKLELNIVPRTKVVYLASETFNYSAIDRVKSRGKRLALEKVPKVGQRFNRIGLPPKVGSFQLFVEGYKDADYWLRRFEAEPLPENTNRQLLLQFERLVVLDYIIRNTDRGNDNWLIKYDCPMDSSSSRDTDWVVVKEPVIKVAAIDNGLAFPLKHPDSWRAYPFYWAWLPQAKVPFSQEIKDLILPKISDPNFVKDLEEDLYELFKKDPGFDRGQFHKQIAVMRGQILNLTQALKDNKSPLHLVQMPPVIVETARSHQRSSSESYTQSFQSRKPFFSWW
PI4KIIIβ, sequence (Q9UBF8 whole entry): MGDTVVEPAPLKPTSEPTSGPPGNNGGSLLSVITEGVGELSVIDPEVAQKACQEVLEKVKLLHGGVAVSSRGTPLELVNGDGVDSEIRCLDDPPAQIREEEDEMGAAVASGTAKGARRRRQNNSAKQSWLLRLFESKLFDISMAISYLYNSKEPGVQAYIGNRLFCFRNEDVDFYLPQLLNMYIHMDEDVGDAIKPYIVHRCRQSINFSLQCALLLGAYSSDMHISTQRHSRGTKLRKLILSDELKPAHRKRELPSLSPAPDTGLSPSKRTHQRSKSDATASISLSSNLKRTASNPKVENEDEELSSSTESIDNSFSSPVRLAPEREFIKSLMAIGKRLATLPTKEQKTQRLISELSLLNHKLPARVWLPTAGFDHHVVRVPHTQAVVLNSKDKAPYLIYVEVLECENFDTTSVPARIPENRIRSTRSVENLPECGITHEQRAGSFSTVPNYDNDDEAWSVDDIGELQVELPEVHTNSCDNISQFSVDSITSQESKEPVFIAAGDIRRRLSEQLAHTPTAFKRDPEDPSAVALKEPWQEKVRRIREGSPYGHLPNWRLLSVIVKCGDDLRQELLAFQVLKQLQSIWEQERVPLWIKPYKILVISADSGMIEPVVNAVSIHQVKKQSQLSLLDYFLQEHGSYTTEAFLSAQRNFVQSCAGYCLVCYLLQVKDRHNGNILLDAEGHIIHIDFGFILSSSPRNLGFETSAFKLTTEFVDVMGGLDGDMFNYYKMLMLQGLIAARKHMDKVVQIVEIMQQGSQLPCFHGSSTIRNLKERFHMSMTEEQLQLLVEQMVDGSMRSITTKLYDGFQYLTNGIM

| SMILES | IC50 (PI3KC2α) [µM] | IC50 (PI3KC2β) [µM] | IC50 (PI3KC2γ) [µM] | IC50 (hsVPS34) [µM] | IC50 (PI4KIIα) [µM] | IC50 (PI4KIIIα) [µM] | IC50 (PI4KIIIβ) [µM] | IC50 (ATR) [µM] | IC50 (ATM) [µM] | IC50 (DNA-PK) [µM] | IC50 (mTORC1) [µM] | IC50 (mTORC2) [µM] | IC50 (PI4P5KIα [2]) [µM] | IC50 (PI4P5KIα [3]) [µM] | IC50 (PI5P4KIIβ) [µM] | other results |
| --- | --- | --- | --- | --- | --- | --- | --- | --- | --- | --- | --- | --- | --- | --- | --- | --- |
| Cc1ccccc1-n1c(Cn2cnc3c(N)ncnc32)nc2cccc(C)c2c1=O [IC87114] | > 100 | > 100 | > 100 | > 100 | > 100 | > 100 | > 100 | > 100 | > 100 | > 100 | > 100 | > 100 | > 100 | > 100 | > 100 | Foxp3 induction at 1 μM ([1]; 1 μM): 15%; increase in Foxp3 expressing cells over and above TCR deprivation alone ([1]; IC-87114 down to 0.01 μM): 10-15% |
| Cc1ccccc1Oc1cccc2c(=O)cc(N3CCOCC3)[nH]c12 [TGX115] | > 100 | 50 | 100 | 5.2 | > 100 | > 100 | > 100 | > 100 | 20 | 1.2 | > 100 | > 100 | > 100 | > 100 | > 100 | effect on Foxp3 expression at 0.1 μM ([1]; 0.1 μM): did not affect Foxp3 expression; effect on Foxp3 expression at 10 μM [1]: slight impact on Foxp3 expression; effect on Foxp3 expression at 10 μM ([1]; listed as TGX-115): very little effect; IC50 (p110α): 61 µM; IC50 (p110β): 0.13 µM; IC50 (p110δ): 0.63 µM; IC50 (p110γ): 100 µM |
